According to patent publication US10131652B2, “Pyrimidinyloxy benzene derivatives as herbicides” (E. I. DU PONT DE NEMOURS AND COMPANY, priority 2014, dated 2018):

What was measured:
Assay type in all cases: in vivo
[1] = test system: ragweed (common ragweed, Ambrosia elatior); experiment: Test B pre-/postemergence plant response
How it was run: (§1)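 Evaluation is visual, about 10 days after application, rating injury from 0 (none) to 100 (complete control) relative to untreated controls. Application was a preemergence soil spray on seeded pots or a postemergence spray on one- to two-leaf plants.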

corn (Zea mays) = experiment: Test B pre-/postemergence plant response
How it was run: as §1

[2] = test system: barnyardgrass (Echinochloa crus-galli); experiment: Test B pre-/postemergence plant response
How it was run: as §1

kochia (Kochia scoparia) = experiment: Test B pre-/postemergence plant response
How it was run: as §1

[3] = test system: wheat (Triticum aestivum); experiment: Test B pre-/postemergence plant response
How it was run: as §1

[4] = test system: giant foxtail (Setaria faberii); experiment: Test B pre-/postemergence plant response
How it was run: as §1

[5] = test system: Italian ryegrass (Lolium multiflorum); experiment: Test B pre-/postemergence plant response
How it was run: as §1

[6] = test system: pigweed (Amaranthus retroflexus); experiment: Test B pre-/postemergence plant response
How it was run: as §1

[7] = test system: galium (catchweed bedstraw, Galium aparine); experiment: Test B postemergence plant response
How it was run: (§2)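 Values are visual control ratings (0 to 100) recorded approximately 10 days after postemergence application to greenhouse-grown plants of 2 to 10 cm, one- to two-leaf stage, each judged against untreated controls.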

[8] = test system: blackgrass (Alopecurus myosuroides); experiment: Test B postemergence plant response
How it was run: as §2

[9] = test system: barnyardgrass (Echinochloa crus-galli); experiment: Test C flooded paddy test plant response; details: Flood, 250 g ai/ha; scale of 0 to 100 where 0 is no effect and 100 is complete control; 13 to 15 days
How it was run: (§3)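 Greenhouse paddy assay, 13–15 days. Treatment into 3 cm floodwater over 2-leaf plants; visual 0–100 rating against controls.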

[10] = test system: ducksalad (Heteranthera limosa); experiment: Test C flooded paddy test plant response; details: Flood, 250 g ai/ha; scale of 0 to 100 where 0 is no effect and 100 is complete control; 13 to 15 days
How it was run: as §3

[11] = test system: small-flower umbrella sedge (Cyperus difformis); experiment: Test C flooded paddy test plant response; details: Flood, 250 g ai/ha; scale of 0 to 100 where 0 is no effect and 100 is complete control; 13 to 15 days
How it was run: as §3

rice (Oryza sativa) = experiment: Test C flooded paddy test plant response; details: Flood, 250 g ai/ha; scale of 0 to 100 where 0 is no effect and 100 is complete control; 13 to 15 days
How it was run: as §3

[12] = 31 g ai/ha, Preemergence, 0 to 100 scale where 0 is no effect and 100 is complete control
[13] = 125 g ai/ha, postemergence, 0 to 100 scale, 0 no effect, 100 complete control
[14] = Postemergence, 31 g ai/ha, 0 to 100 scale (0 no effect, 100 complete control)
[15] = Preemergence, 125 g ai/ha, 0 to 100 scale (0 no effect, 100 complete control)
[16] = Postemergence, 500 g ai/ha, 0 to 100 scale (0 no effect, 100 complete control)
[17] = Preemergence, 500 g ai/ha, 0 to 100 scale where 0 is no effect and 100 is complete control
[18] = Postemergence, 1000 g ai/ha, 0 to 100 scale (0 no effect, 100 complete control)
[19] = Preemergence, 1000 g ai/ha, 0 to 100 scale (0 no effect, 100 complete control)

N#Cc1ccnc(-c2ccccc2Oc2ncc(Cl)cn2)c1 [Compound 188]
Plant response rating, Ragweed [1, 12]: 0 | Plant response rating, Ragweed [1, 13]: 20 | Plant response rating, Ragweed [1, 14]: 0 | Ragweed plant response rating [1, 15]: 0 | Plant response rating, Corn (corn (Zea mays); [13]): 30 | Plant response rating, Corn (corn (Zea mays); [14]): 0 | Plant response rating, Barnyardgrass [2, 12]: 0 | Plant response rating, Barnyardgrass [2, 13]: 20 | Plant response rating, Barnyardgrass [2, 14]: 0 | Barnyardgrass plant response rating [2, 15]: 20 | Plant response rating, Kochia (kochia (Kochia scoparia); [12]): 0 | Plant response rating, Kochia (kochia (Kochia scoparia); [13]): 90 | Plant response rating, Kochia (kochia (Kochia scoparia); [14]): 0 | Kochia plant response rating (kochia (Kochia scoparia); [15]): 30 | Plant response rating, Wheat [3, 13]: 20 | Plant response rating, Wheat [3, 14]: 0 | Plant response rating, Foxtail, Giant [4, 12]: 0 | Plant response rating, Foxtail, Giant [4, 13]: 20 | Plant response rating, Foxtail, Giant [4, 14]: 0 | Foxtail, Giant plant response rating [4, 15]: 40 | Plant response rating, Ryegrass, Italian [5, 12]: 0 | Plant response rating, Ryegrass, Italian [5, 13]: 0 | Plant response rating, Ryegrass, Italian [5, 14]: 0 | Ryegrass, Italian plant response rating [5, 15]: 0 | Plant response rating, Pigweed [6, 12]: 0 | Plant response rating, Pigweed [6, 13]: 60 | Plant response rating, Pigweed [6, 14]: 0 | Pigweed plant response rating [6, 15]: 100 | Plant response rating, Galium [7, 13]: 50 | Plant response rating, Galium [7, 14]: 0 | Plant response rating, Blackgrass [8, 13]: 20 | Plant response rating, Blackgrass [8, 14]: 0 | Barnyardgrass plant response rating [9]: 0 | Ducksalad plant response rating [10]: 30 | Sedge, Umbrella plant response rating [11]: 0 | Rice plant response rating (rice (Oryza sativa)): 0

Clc1cnc(Oc2ccccc2-c2cc(Cl)cnn2)nc1 [Compound 189]
Plant response rating, Ragweed [1, 12]: 0 | Plant response rating, Ragweed [1, 13]: 0 | Plant response rating, Ragweed [1, 14]: 0 | Ragweed plant response rating [1, 15]: 0 | Plant response rating, Corn (corn (Zea mays); [13]): 0 | Plant response rating, Corn (corn (Zea mays); [14]): 0 | Plant response rating, Barnyardgrass [2, 12]: 0 | Plant response rating, Barnyardgrass [2, 13]: 0 | Plant response rating, Barnyardgrass [2, 14]: 0 | Barnyardgrass plant response rating [2, 15]: 0 | Plant response rating, Kochia (kochia (Kochia scoparia); [12]): 0 | Plant response rating, Kochia (kochia (Kochia scoparia); [13]): 0 | Plant response rating, Kochia (kochia (Kochia scoparia); [14]): 0 | Kochia plant response rating (kochia (Kochia scoparia); [15]): 0 | Plant response rating, Wheat [3, 13]: 0 | Plant response rating, Wheat [3, 14]: 0 | Plant response rating, Foxtail, Giant [4, 12]: 0 | Plant response rating, Foxtail, Giant [4, 13]: 0 | Plant response rating, Foxtail, Giant [4, 14]: 0 | Foxtail, Giant plant response rating [4, 15]: 0 | Plant response rating, Ryegrass, Italian [5, 12]: 0 | Plant response rating, Ryegrass, Italian [5, 13]: 0 | Plant response rating, Ryegrass, Italian [5, 14]: 0 | Ryegrass, Italian plant response rating [5, 15]: 0 | Plant response rating, Pigweed [6, 12]: 0 | Plant response rating, Pigweed [6, 13]: 0 | Plant response rating, Pigweed [6, 14]: 0 | Pigweed plant response rating [6, 15]: 0 | Plant response rating, Galium [7, 13]: 0 | Plant response rating, Galium [7, 14]: 0 | Plant response rating, Blackgrass [8, 13]: 0 | Plant response rating, Blackgrass [8, 14]: 0 | Barnyardgrass plant response rating [9]: 0 | Ducksalad plant response rating [10]: 0 | Sedge, Umbrella plant response rating [11]: 0 | Rice plant response rating (rice (Oryza sativa)): 0

Clc1cnc(Oc2ccccc2-c2cc(Cl)ncn2)nc1 [Compound 190]
Plant response rating, Ragweed [1, 13]: 10 | Plant response rating, Ragweed [1, 16]: 10 | Ragweed plant response rating [1, 15]: 0 | Plant response rating, Ragweed [1, 17]: 0 | Plant response rating, Corn (corn (Zea mays); [13]): 0 | Plant response rating, Corn (corn (Zea mays); [16]): 0 | Plant response rating, Barnyardgrass [2, 13]: 0 | Plant response rating, Barnyardgrass [2, 16]: 0 | Barnyardgrass plant response rating [2, 15]: 0 | Plant response rating, Barnyardgrass [2, 17]: 0 | Plant response rating, Kochia (kochia (Kochia scoparia); [13]): 0 | Plant response rating, Kochia (kochia (Kochia scoparia); [16]): 0 | Kochia plant response rating (kochia (Kochia scoparia); [15]): 0 | Plant response rating, Kochia (kochia (Kochia scoparia); [17]): 0 | Plant response rating, Wheat [3, 13]: 0 | Plant response rating, Wheat [3, 16]: 0 | Plant response rating, Foxtail, Giant [4, 13]: 0 | Plant response rating, Foxtail, Giant [4, 16]: 0 | Foxtail, Giant plant response rating [4, 15]: 0 | Plant response rating, Foxtail, Giant [4, 17]: 10 | Plant response rating, Ryegrass, Italian [5, 13]: 0 | Plant response rating, Ryegrass, Italian [5, 16]: 0 | Ryegrass, Italian plant response rating [5, 15]: 0 | Plant response rating, Ryegrass, Italian [5, 17]: 0 | Plant response rating, Pigweed [6, 13]: 0 | Plant response rating, Pigweed [6, 16]: 20 | Pigweed plant response rating [6, 15]: 0 | Plant response rating, Pigweed [6, 17]: 10 | Plant response rating, Galium [7, 13]: 0 | Plant response rating, Galium [7, 16]: 10 | Plant response rating, Blackgrass [8, 13]: 0 | Plant response rating, Blackgrass [8, 16]: 0 | Barnyardgrass plant response rating [9]: 0 | Ducksalad plant response rating [10]: 0 | Sedge, Umbrella plant response rating [11]: 0 | Rice plant response rating (rice (Oryza sativa)): 0

Fc1cnc(Oc2ccccc2-c2cc(Cl)sn2)nc1 [Compound 193]
Plant response rating, Ragweed [1, 18]: 90 | Plant response rating, Ragweed [1, 19]: 80 | Plant response rating, Corn (corn (Zea mays); [18]): 10 | Plant response rating, Barnyardgrass [2, 18]: 90 | Plant response rating, Barnyardgrass [2, 19]: 100 | Plant response rating, Kochia (kochia (Kochia scoparia); [18]): 100 | Plant response rating, Kochia (kochia (Kochia scoparia); [19]): 100 | Plant response rating, Wheat [3, 18]: 20 | Plant response rating, Foxtail, Giant [4, 18]: 90 | Plant response rating, Foxtail, Giant [4, 19]: 100 | Plant response rating, Ryegrass, Italian [5, 18]: 30 | Plant response rating, Ryegrass, Italian [5, 19]: 0 | Plant response rating, Pigweed [6, 18]: 100 | Plant response rating, Pigweed [6, 19]: 100 | Plant response rating, Galium [7, 18]: 100 | Plant response rating, Blackgrass [8, 18]: 90 | Barnyardgrass plant response rating [9]: 0 | Ducksalad plant response rating [10]: 65 | Sedge, Umbrella plant response rating [11]: 0 | Rice plant response rating (rice (Oryza sativa)): 0

Cc1cnc(Oc2ccccc2-c2cc(Cl)sn2)nc1 [Compound 194]
Plant response rating, Ragweed [1, 18]: 80 | Plant response rating, Ragweed [1, 19]: 30 | Plant response rating, Corn (corn (Zea mays); [18]): 60 | Plant response rating, Barnyardgrass [2, 18]: 100 | Plant response rating, Barnyardgrass [2, 19]: 100 | Plant response rating, Kochia (kochia (Kochia scoparia); [18]): 100 | Plant response rating, Kochia (kochia (Kochia scoparia); [19]): 100 | Plant response rating, Wheat [3, 18]: 20 | Plant response rating, Foxtail, Giant [4, 18]: 90 | Plant response rating, Foxtail, Giant [4, 19]: 100 | Plant response rating, Ryegrass, Italian [5, 18]: 50 | Plant response rating, Ryegrass, Italian [5, 19]: 50 | Plant response rating, Pigweed [6, 18]: 90 | Plant response rating, Pigweed [6, 19]: 100 | Plant response rating, Galium [7, 18]: 100 | Plant response rating, Blackgrass [8, 18]: 90 | Barnyardgrass plant response rating [9]: 0 | Ducksalad plant response rating [10]: 80 | Sedge, Umbrella plant response rating [11]: 0 | Rice plant response rating (rice (Oryza sativa)): 0

C=C(C)c1cc(-c2ccccc2Oc2ncc(Cl)cn2)on1 [Compound 196]
Plant response rating, Ragweed [1, 12]: 0 | Plant response rating, Ragweed [1, 13]: 20 | Plant response rating, Ragweed [1, 14]: 10 | Ragweed plant response rating [1, 15]: 0 | Plant response rating, Corn (corn (Zea mays); [13]): 0 | Plant response rating, Corn (corn (Zea mays); [14]): 0 | Plant response rating, Barnyardgrass [2, 12]: 0 | Plant response rating, Barnyardgrass [2, 13]: 10 | Plant response rating, Barnyardgrass [2, 14]: 0 | Barnyardgrass plant response rating [2, 15]: 10 | Plant response rating, Kochia (kochia (Kochia scoparia); [12]): 0 | Plant response rating, Kochia (kochia (Kochia scoparia); [13]): 40 | Plant response rating, Kochia (kochia (Kochia scoparia); [14]): 0 | Kochia plant response rating (kochia (Kochia scoparia); [15]): 0 | Plant response rating, Wheat [3, 13]: 0 | Plant response rating, Wheat [3, 14]: 0 | Plant response rating, Foxtail, Giant [4, 12]: 0 | Plant response rating, Foxtail, Giant [4, 13]: 10 | Plant response rating, Foxtail, Giant [4, 14]: 0 | Foxtail, Giant plant response rating [4, 15]: 20 | Plant response rating, Ryegrass, Italian [5, 12]: 0 | Plant response rating, Ryegrass, Italian [5, 13]: 0 | Plant response rating, Ryegrass, Italian [5, 14]: 0 | Ryegrass, Italian plant response rating [5, 15]: 0 | Plant response rating, Pigweed [6, 12]: 0 | Plant response rating, Pigweed [6, 13]: 60 | Plant response rating, Pigweed [6, 14]: 20 | Pigweed plant response rating [6, 15]: 10 | Plant response rating, Galium [7, 13]: 100 | Plant response rating, Galium [7, 14]: 60 | Plant response rating, Blackgrass [8, 13]: 0 | Plant response rating, Blackgrass [8, 14]: 0 | Barnyardgrass plant response rating [9]: 30 | Ducksalad plant response rating [10]: 55 | Sedge, Umbrella plant response rating [11]: 70 | Rice plant response rating (rice (Oryza sativa)): 0
